Our source for the MIC values is ChEMBL document CHEMBL1127131, “Penems containing amino acid derived substituents at C-2” (1993).

One experiment has as its system Bacillus subtilis. In words: Minimum inhibitory concentration required for antibacterial activity against Bacillus subtilis. The experiment is classed as functional.
The subject of experiment [1] is Serratia. Nature of the experiment: Minimum inhibitory concentration required for antibacterial activity against Serratia. It counts as functional.
The test system of a further experiment is Escherichia coli. Nature of the experiment: Minimum inhibitory concentration required for antibacterial activity against Escherichia coli. The experiment is classed as functional.
Experiment [2] can be described thus: Gram-negative geometric mean MIC of antibacterial activity. The experiment is classed as functional.
The nature of experiment [3]: Gram-positive geometric mean MIC of antibacterial activity. It counts as functional.
The test system of a further experiment is Micrococcus luteus. In words: Minimum inhibitory concentration required for antibacterial activity against Sarcina luteus. The experiment is classed as functional, sarcinea luteus.
The next experiment deals with Enterobacter. Nature of the experiment: Minimum inhibitory concentration required for antibacterial activity against Enterobacter. The experiment is classed as functional.
For a further experiment, the system named is Staphylococcus. In words: Minimum inhibitory concentration required for antibacterial activity against Staphylococcus. It counts as functional.
Another experiment relates to Providencia. Nature of the experiment: Minimum inhibitory concentration required for antibacterial activity against Providencia. It counts as functional.
The next experiment relates to Klebsiella. In words: Minimum inhibitory concentration required for antibacterial activity against Klebsiella. It counts as functional.
The subject of another experiment is Salmonella. In words: Minimum inhibitory concentration required for antibacterial activity against Salmonella. It counts as functional.
The test system of the next experiment is Enterococcus faecalis. Nature of the experiment: Minimum inhibitory required for antibacterial activity against Streptococcus faecalis. The experiment is classed as functional.
The test system of a further experiment is Morganella. In words: Minimum inhibitory concentration required for antibacterial activity against Morganella. It counts as functional.
The test system of experiment [4] is Serratia. In words: Minimum inhibitory concentration for antibacterial activity against Serratia. The experiment is classed as functional.
The nature of experiment [5]: Gram-positive geometric mean MIC for antibacterial activity (ug/mL). It counts as functional.
Experiment [6] is described as follows: Gram-positive vitro for its antibacterial activity of Geometric Mean MIC (ug/mL). It counts as functional.

In brackets after ≈: the same amount, converted by molar mass.

The term MIC denotes the smallest concentration in the dilution series that meets the test's criterion for growth inhibition. With `C[C@@H](O)[C@H]1C(=O)N2C(C(=O)O)=C(SC[C@@H](N)C(=O)O)S[C@H]12`, the MIC in the experiment with Bacillus subtilis was 0.5 µg/mL (≈ 1.5 µM); against Serratia [1], 1.08 µg/mL (≈ 3.23 µM); against Escherichia coli, 0.25 µg/mL (≈ 0.748 µM); in [2], 0.49 µg/mL; in experiment [3], 3.01 µg/mL; with Micrococcus luteus, 4 µg/mL (≈ 12 µM). Also, the MIC in the experiment on Enterobacter turned out to be 0.76 µg/mL (≈ 2.27 µM); against Staphylococcus it was 1.82 µg/mL (≈ 5.44 µM); in the experiment on Providencia, 5.66 µg/mL (≈ 16.9 µM); in the experiment on Klebsiella it was 0.17 µg/mL (≈ 0.508 µM); against Salmonella, 0.16 µg/mL (≈ 0.479 µM); against Enterococcus faecalis it was 45.2 µg/mL (≈ 135 µM).

Consider `C[C@@H](O)[C@H]1C(=O)N2C(C(=O)O)=C(COC(N)=O)S[C@H]12` [RITIPENEM], for which the MIC came out at 0.06 µg/mL (≈ 0.208 µM) in the experiment on Bacillus subtilis; 2 µg/mL (≈ 6.94 µM) against Morganella; 0.68 µg/mL (≈ 2.36 µM) against Escherichia coli; 1.2 µg/mL in experiment [2]; 5.7 µg/mL (≈ 19.8 µM) in the experiment on Serratia [4]; 3.2 µg/mL (≈ 11.1 µM) in the experiment with Enterobacter. For the same molecule, the MIC worked out at 0.16 µg/mL (≈ 0.555 µM) in [5]; 0.12 µg/mL (≈ 0.416 µM) in the experiment with Staphylococcus; 2.3 µg/mL (≈ 7.98 µM) with Providencia; 0.81 µg/mL (≈ 2.81 µM) against Klebsiella; 0.5 µg/mL (≈ 1.73 µM) with Salmonella; 5.7 µg/mL (≈ 19.8 µM) in the experiment on Enterococcus faecalis.

In the case of `C[C@@H](O)[C@H]1C(=O)N2C(C(=O)O)=C(SC[C@H](N)C(=O)O)S[C@H]12`, the MIC turned out to be 2.83 µg/mL (≈ 8.46 µM) against Bacillus subtilis; 17.3 µg/mL (≈ 51.7 µM) with Serratia [1]; 6.46 µg/mL (≈ 19.3 µM) in the experiment on Escherichia coli; 16 µg/mL in [2]; 4 µg/mL (≈ 12 µM) in the experiment on Micrococcus luteus; 16 µg/mL (≈ 47.9 µM) with Enterobacter. The MIC in experiment [5] amounted to 4 µg/mL (≈ 12 µM); against Staphylococcus it was 1.94 µg/mL (≈ 5.8 µM); against Providencia, 42.7 µg/mL (≈ 128 µM); with Klebsiella, 4 µg/mL (≈ 12 µM); with Salmonella, 5.28 µg/mL (≈ 15.8 µM); in the experiment with Enterococcus faecalis, 128 µg/mL (≈ 383 µM).

Turning to `CSCC[C@@H](N)C1=C(C(=O)O)N2C(=O)[C@H]([C@@H](C)O)[C@H]2S1`, the minimal inhibitory concentration (MIC) in the experiment on Bacillus subtilis was determined as 0.125 µg/mL (≈ 0.393 µM); against Serratia [1], 2.83 µg/mL (≈ 8.89 µM); against Morganella, 4 µg/mL (≈ 12.6 µM); with Escherichia coli, 0.441 µg/mL (≈ 1.38 µM); in [2] it was 0.13 µg/mL; against Micrococcus luteus it was 0.125 µg/mL (≈ 0.393 µM). In addition, the MIC against Enterobacter came to 1 µg/mL (≈ 3.14 µM); in experiment [5], 0.88 µg/mL (≈ 2.76 µM); in the experiment on Staphylococcus it was 0.07 µg/mL (≈ 0.22 µM); in the experiment on Providencia, 5.28 µg/mL (≈ 16.6 µM); against Klebsiella, 0.5 µg/mL (≈ 1.57 µM); against Salmonella, 0.397 µg/mL (≈ 1.25 µM). Besides, it took 8.02 µg/mL (≈ 25.2 µM) to inhibit growth against Enterococcus faecalis (MIC).

For `C[C@@H](O)[C@H]1C(=O)N2C(C(=O)O)=C(CN)S[C@H]12`, the MIC in the experiment with Bacillus subtilis was determined as 0.5 µg/mL (≈ 2.05 µM); with Morganella, 4 µg/mL (≈ 16.4 µM); in the experiment on Escherichia coli, 5.15 µg/mL (≈ 21.1 µM); in experiment [2], 6.27 µg/mL; with Micrococcus luteus, 0.5 µg/mL (≈ 2.05 µM); against Serratia [4], 13.4 µg/mL (≈ 55.1 µM). Besides, the MIC with Enterobacter turned out to be 8 µg/mL (≈ 32.8 µM); in experiment [5], 0.28 µg/mL (≈ 1.15 µM); against Staphylococcus, 0.153 µg/mL (≈ 0.626 µM); with Providencia, 8 µg/mL (≈ 32.8 µM); in the experiment with Klebsiella it was 6.06 µg/mL (≈ 24.8 µM); in the experiment with Salmonella, 3.18 µg/mL (≈ 13 µM). This molecule also returned an MIC with Enterococcus faecalis of 32 µg/mL (≈ 131 µM).

For the molecule `C[C@@H](O)[C@H]1C(=O)N2C(C(=O)O)=C(CC[C@@H](N)C(=O)O)S[C@H]12`, the MIC worked out at 1.01 µg/mL (≈ 3.19 µM) against Bacillus subtilis; 16 µg/mL (≈ 50.6 µM) with Serratia [1]; 16 µg/mL (≈ 50.6 µM) in the experiment with Morganella; 2.42 µg/mL (≈ 7.65 µM) with Escherichia coli; 4 µg/mL in experiment [2]; 4 µg/mL (≈ 12.6 µM) against Micrococcus luteus. Further, the MIC with Enterobacter is 2.52 µg/mL (≈ 7.97 µM); in experiment [5], 2.7 µg/mL (≈ 8.54 µM); in the experiment on Staphylococcus, 2.08 µg/mL (≈ 6.58 µM); against Providencia, 18.4 µg/mL (≈ 58.1 µM); in the experiment on Klebsiella it was 2.83 µg/mL (≈ 8.95 µM); in the experiment with Salmonella, 1 µg/mL (≈ 3.16 µM). Also, the MIC in the experiment with Enterococcus faecalis was 45.3 µg/mL (≈ 143 µM).

With `C[C@H](N)C1=C(C(=O)O)N2C(=O)[C@H]([C@@H](C)O)[C@H]2S1`, the MIC in the experiment on Bacillus subtilis turned out to be 1 µg/mL (≈ 3.87 µM); against Serratia [1], 45.3 µg/mL (≈ 175 µM); in the experiment on Morganella, 64 µg/mL (≈ 248 µM); with Escherichia coli, 21.9 µg/mL (≈ 84.9 µM); in experiment [2], 24.6 µg/mL; in the experiment on Micrococcus luteus, 0.5 µg/mL (≈ 1.94 µM). Also, the minimum inhibitory concentration (MIC) against Enterobacter is 20.2 µg/mL (≈ 78 µM); in [5] it was 0.47 µg/mL (≈ 1.82 µM); in the experiment on Staphylococcus, 0.26 µg/mL (≈ 1.01 µM); in the experiment on Providencia, 64 µg/mL (≈ 248 µM); with Klebsiella, 17.1 µg/mL (≈ 66.4 µM); against Salmonella it was 10.1 µg/mL (≈ 39 µM). This molecule also gave an MIC in the experiment on Enterococcus faecalis of 64 µg/mL (≈ 248 µM).

Regarding `CSC[C@H](N)C1=C(C(=O)O)N2C(=O)[C@H]([C@@H](C)O)[C@H]2S1`, the MIC is 0.5 µg/mL (≈ 1.64 µM) in the experiment with Bacillus subtilis; 22.6 µg/mL (≈ 74.3 µM) in the experiment on Serratia [1]; 128 µg/mL (≈ 421 µM) in the experiment with Morganella; 12.4 µg/mL (≈ 40.9 µM) in the experiment with Escherichia coli; 16.3 µg/mL in [2]; 0.25 µg/mL (≈ 0.821 µM) with Micrococcus luteus. The MIC stood at 20.2 µg/mL (≈ 66.2 µM) in the experiment on Enterobacter; 0.45 µg/mL (≈ 1.48 µM) in experiment [6]; 0.26 µg/mL (≈ 0.854 µM) in the experiment on Staphylococcus; 97 µg/mL (≈ 319 µM) in the experiment on Providencia; 8.57 µg/mL (≈ 28.2 µM) in the experiment on Klebsiella; 5.04 µg/mL (≈ 16.6 µM) in the experiment with Salmonella. In the experiment with Enterococcus faecalis, this molecule yielded an MIC of 90.5 µg/mL (≈ 297 µM).
